According to ChEMBL document CHEMBL3507680, “University of Dundee, Gates Library screen for HepG2 cell viability”:

Experiment: Human HepG2 cell viability assay in 384 well format
Format: toxicity, cell-based
Design: dose 125 nL, time 70.5 hour; concentration not given beside the values
Conditions: HepG2 cells, read-out: Inhibition

Row | Compound | cytotoxicity at 70.5 h [%]
1 | Cc1cc2ncn(C(=O)N3CCOCC3)c2cc1C | -5.67
2 | CC1(C)Oc2ccc(S(=O)(=O)NCCCn3ccnc3)cc2NC1=O | 28.6
3 | CCC1=N[C@@]2(CC[C@@H]3CN(C(=O)NC(C)C)C[C@@H]32)C(=O)N1C | -1.59
4 | CC1CCc2nn(CCNC(=O)C3CCCC3)c(=O)cc2C1 (stereo unspecified) | -3.14
5 | CS(=O)(=O)N1CC(c2nc(N)ncc2-c2ccc(F)cc2)C1 | -2.15
6 | CNC(=O)C1(CCCc2ccccn2)CN(Cc2scnc2C)C1 | 27.6
7 | COCCNc1ccc(CC2CCNC2)cn1 (stereo unspecified) | -5.62
8 | CC(=O)N1CC(c2n[nH]c3ncccc23)C1 | 28.9
9 | Cc1cc(N2CCN(C(=O)c3cccnc3)CC2)nc(C)n1 | -2.72
10 | O=C(NCCO)c1sc2ncccc2c1C1CN(C2CCCC2)CCO1 (stereo unspecified) | -3.18
11 | Cc1nccn1CC1CCCN(S(=O)(=O)c2cnn(C)c2)C1 (stereo unspecified) | -2.81
12 | Fc1cccc(Oc2nccnc2C2CCN(C3CCOCC3)CC2)c1 | 0.625
13 | O=C(C1CC1)N1C[C@H]2CCCN(S(=O)(=O)c3ccc(Cl)s3)[C@H]2C1 | -0.267
14 | Cc1cnc2[nH]c(C(F)(F)F)c(CN3CCSCC3)c2c1 | -0.92
15 | Cc1cc(C)n(CC(=O)N2CCCC(c3cc4cccnc4[nH]3)C2)n1 (stereo unspecified) | -3.24
16 | CC(C)C(NC(=O)c1cnc(N2CCOCC2)nc1)c1cccs1 (stereo unspecified) | 7.3
17 | Cc1ccc2nc(C)cc(NCCNS(=O)(=O)c3cn(C)nc3C)c2c1 | 0.534
18 | OC1(c2ccccc2F)CCN(Cc2ccccc2N2CCCC2)CC1 | 12.6
19 | Cc1c(CN2CCCC(O)C2)[nH]c2ccc(F)cc12 (stereo unspecified) | 0.643
20 | COc1ccc2c(c1)NC(C1CCN(C(=O)C(C)C)CC1)NS2(=O)=O (stereo unspecified) | -3.05
21 | CCOCCCNS(=O)(=O)c1ccc2c(c1)NC(=O)C(C)O2 (stereo unspecified) | 12.7
22 | CC(C)(C)OC(=O)N[C@@H]1C[C@@H](O)CN(C(=O)c2cccc(F)c2)C[C@H]1O | -3.14
23 | CNc1cncc(C2CCN(S(C)(=O)=O)CC2)n1 | -2.96

Row | Compound | cytotoxicity at 70.5 h [%]
24 | Cc1cc(Oc2ccccc2)nc(C2CCCCN2)n1 (stereo unspecified) | 13.4
25 | Cc1noc(C)c1CC(=O)NCC1(O)CCCN(c2ccccn2)C1 (stereo unspecified) | 13.4
26 | NC(=O)c1cc(CC2CCCN(Cc3cnccn3)CC2)ncn1 (stereo unspecified) | -2.22
27 | COCCNCc1cc2cc(C)cc(C)c2[nH]c1=O | -4.55
28 | COCC(=O)N1CC(c2n[nH]cc2C)C1 | -6.26
29 | Fc1ccccc1Oc1nccnc1C1CCCN(C2CCOCC2)C1 (stereo unspecified) | -9
30 | Cc1cc(O)cc(C2CCCN2C(=O)c2ccn(C)n2)n1 (stereo unspecified) | 10.2
31 | Cc1cc(=O)[nH]c(=O)n1Cc1ncc(-c2ccccc2C(=O)O)s1 | -0.441
32 | COCCNc1ccc(CC2CCCNC2)cn1 (stereo unspecified) | -7.04
33 | CCn1nc(C)c(-c2cncn2Cc2ccccc2CN(C)C)c1C | -3.79
34 | Cc1ccnn1CCC(=O)N1CCCC1c1cc2cccnc2[nH]1 (stereo unspecified) | 1.14
35 | OC1(c2ccc(F)cc2)CCN(Cc2ccccc2N2CCCC2)CC1 | 52.6
36 | COc1ccc(CN2CCc3sccc3C2C)cc1CN1CCOCC1 (stereo unspecified) | -0.0983
37 | CC(C)c1[nH]c2ncccc2c1CN1CCOCC1 | 4.28
38 | CCc1nccn1-c1cccc(C2CCCN2)n1 (stereo unspecified) | -1.73
39 | Cn1nc(C2CNCCO2)cc1CCOc1ccc(Cl)cc1 (stereo unspecified) | 7.97
40 | CNC(=O)CC1CC2(CCN(Cc3nccs3)CC2)c2ccccc21 (stereo unspecified) | 0.687
41 | CO[C@@H]1CC[C@H]2[C@H]1OCCN2CC1CCOCC1 | -2.79
42 | CC(C)Nc1ncnc2c1CCN(C(=O)Cc1ccccn1)CC2 | 26.6
43 | O=S(=O)(C1CC1)N1CCOCC2(CCN(c3ccccn3)C2)C1 (stereo unspecified) | 36.2
44 | CCN1CC2(CCNCC2)COc2ccccc2S1(=O)=O | -15.6
45 | c1cc(CN2C[C@@H]3COC[C@]3(COCC3CC3)C2)ccn1 | 11.6
46 | COCCCN(Cc1ccccn1)Cc1ccnn1C1CCCCO1 (stereo unspecified) | 13.4
